{
  "source": "patent US9623226B2",
  "about": "“Device for efficient delivery of compounds to or through the skin or biological barriers, using light-absorbing thin films” (Universidade de Coimbra, priority 2011, dated 2017)",
  "key": {"[1]": {"assay": "In vitro transdermal delivery through minipig skin samples, passive versus active (photoacoustic device)", "format": "in vitro ADME", "conditions": "extraction with dichloromethane and fluorescence, confirming fluorescence microscopy; high-impulse broadband pressure wave versus passive", "description": "Skin sections were cut from the back of the minipigs after they had been sacrificed. These skin sections were frozen and kept at −18° C. until use in in vitro tests. Before each in vitro test, the required amount of minipig skin was slowly brought to room temperature. All the tests were carried out at room temperature.\n(§1) The skin samples collected after the experiments were analyzed by microscopy to evaluate the penetration depth of the desired compounds, or followed an extraction procedure to evaluate their amounts under the skin. The evaluation of the penetration depth by fluorescence microscopy or by confocal microscopy requires tissue fixation. The first step in the fixation was immersion in paraformaldehyde (4% in aqueous solution) for at least 24 h. Next, the samples were transferred to a 25% sucrose solution for at least 48 h. […] The skin slices were collected in microscope slides and kept refrigerated until they were analyzed by fluorescence microscopy and confocal microscopy. […]\nIn order to evaluate the quantities of the F2TPPMet delivered under the skin a specific method was developed. […] Fluorescence calibration curves of the pharmacological excipient delivered in the skin were performed in the extractor solvent to validate the methodology used. Finally, the mass delivered onto the skin is determined for each essay substituting its fluorescence in the calibration curve. […]"}, "skin of a minipig": {"tested_on": "skin of a minipig", "assay": "In vivo transdermal delivery on the back of minipigs, passive and active (photoacoustic device)", "conditions": "device of Example 1, 12 laser shots at 355 nm, 10 mJ per pulse", "text": "In vivo and in vitro tests employed four minipigs obtained from IMIDHA (Instituto Madrileño de Investigación y Desarrollo Rural, Agrario y Alimentario)—Aranjuez (Madrid). They were all females, aged 6-8 months, white with brown spots, average weight 56.8 kg (66.2, 57.1, 43.5, 60.6 kg). They were received at Estação Zootécnica Nacional, Vale de Santarém, where they were accommodated in individual boxes with 1.5 m^2, feed with a standard diet for pigs and water ad libidum, for an acclimation period of three weeks. The study was performed in accordance to the Portuguese ethical guidelines on a license granted by Dircção de Serviços de Saúde o Protecção Animal, ref. 0420/000/000/2007. Access to food was suspended 24 h hours before treatment. The backs of the animals were shaved 24 h prior to the in vivo application of the dermatological formulations. […]\nas §1, with “fixation.” for “fixation. The first step in the fixation was immersion in paraformaldehyde (4% in aqueous solution) for at least 24 h. Next, the samples were transferred to a 25% sucrose solution for at least 48 h.”"}},
  "data": [
    {"substance": "5,10,15,20-tetrakis(2,6-fluoro-3-N-methylsulfamoylphenyl)porphyrin [F2TPPMet]", "values": [
      {"measurement": "quantity of F2TPPMet delivered to the skin, active versus passive transdermal delivery", "setting": "[1]", "result": "increase in the quantity of F2TPPMet delivered to the skin"},
      {"measurement": "state of the stratum corneum after active transdermal delivery", "setting": "skin of a minipig; 20 minutes incubation", "result": "stratum corneum remained intact"},
      {"measurement": "distribution in the skin by fluorescence microscopy after active transdermal delivery", "setting": "skin of a minipig; ca 1 cm^2, 20 minutes incubation", "result": "distributed over all the epidermis"}
    ]}
  ]
}
